Assay results as given in the NIST ThermoML archive (doi:10.1021/acs.jced.7b00221).

Assay: xn = mol fraction of the nth substance listed
Settings: 100 kPa, Liquid; for viscosity: Cone and plate viscometry; for mass density: Vibrating tube method

CC(=O)[O-].CCCCCCCCCCCCCC[P+](CCCCCC)(CCCCCC)CCCCCC [trihexyl(tetradecyl)phosphonium acetate] + CCCCCC[n+]1ccn(C)c1.O=S(=O)([N-]S(=O)(=O)C(F)(F)F)C(F)(F)F
viscosity [mPa·s]
Settings	278.15 K	283.15 K	288.15 K	293.15 K	298.15 K	303.15 K	308.15 K	313.15 K	318.15 K	323.15 K
x1 = 0.101	353	251	182	136	105	82	66	53	–	–
x1 = 0.199	579	404	286	209	156	120	94	75	61	–
x1 = 0.3	946	644	447	319	235	177	136	107	85	70
x1 = 0.4	1403	939	640	449	324	239	181	140	110	88
x1 = 0.499	2057	1345	901	621	440	320	238	181	141	112
x1 = 0.6	2588	1669	1100	746	523	376	277	207	159	124
x1 = 0.699	2721	1763	1160	785	530	381	279	208	159	125
x1 = 0.799	2877	1850	1219	827	578	414	304	228	175	137
x1 = 0.899	2415	1575	1047	717	505	366	271	204	158	123

CCCCCCCC[P+](CC)(CC)CC.O=[N+]([O-])c1cn[n-]c1 [triethyloctylphosphonium 4-nitropyrazolide] + CCCCCC[n+]1ccn(C)c1.O=S(=O)([N-]S(=O)(=O)C(F)(F)F)C(F)(F)F
Settings	mass density [kg/m3]	viscosity [mPa·s]
278.15 K, x1 = 0.126	–	267
278.15 K, x1 = 0.25	–	358
278.15 K, x1 = 0.499	–	680
278.15 K, x1 = 0.75	–	1046
278.15 K, x1 = 0.898	–	1242
283.15 K, x1 = 0.126	1340	191
283.15 K, x1 = 0.25	1296.5	251
283.15 K, x1 = 0.499	1209.6	456
283.15 K, x1 = 0.75	1124.3	682
283.15 K, x1 = 0.898	1074.4	804
283.15 K, x1 = 1	1040.7	–
288.15 K, x1 = 0.126	1335.5	140
288.15 K, x1 = 0.25	1292.3	180
288.15 K, x1 = 0.499	1205.8	314
288.15 K, x1 = 0.75	1120.9	457
288.15 K, x1 = 0.898	1071.2	535
288.15 K, x1 = 1	1037.7	–
293.15 K, x1 = 0.126	1331.1	106
293.15 K, x1 = 0.25	1288.2	133
293.15 K, x1 = 0.499	1201.9	223
293.15 K, x1 = 0.75	1117.5	317
293.15 K, x1 = 0.898	1068	369
293.15 K, x1 = 1	1034.6	–
295.15 K, x1 = 0.126	1329.4	–
295.15 K, x1 = 0.25	1286.5	–
295.15 K, x1 = 0.499	1200.4	–
295.15 K, x1 = 0.75	1116.1	–
295.15 K, x1 = 0.898	1066.8	–
295.15 K, x1 = 1	1033.4	–
298.15 K, x1 = 0.126	1326.7	82
298.15 K, x1 = 0.25	1284.1	102
298.15 K, x1 = 0.499	1198.2	164
298.15 K, x1 = 0.75	1114.1	227
298.15 K, x1 = 0.898	1064.8	263
298.15 K, x1 = 1	1031.5	–
303.15 K, x1 = 0.126	1322.4	66
303.15 K, x1 = 0.25	1280	79
303.15 K, x1 = 0.499	1194.5	124
303.15 K, x1 = 0.75	1110.7	168
303.15 K, x1 = 0.898	1061.7	192
303.15 K, x1 = 1	1028.5	–
308.15 K, x1 = 0.126	1318.1	53
308.15 K, x1 = 0.25	1275.9	63
308.15 K, x1 = 0.499	1190.9	96
308.15 K, x1 = 0.75	1107.5	127
308.15 K, x1 = 0.898	1058.6	145
308.15 K, x1 = 1	1025.5	–
313.15 K, x1 = 0.126	1313.8	–
313.15 K, x1 = 0.25	1271.8	52
313.15 K, x1 = 0.499	1187.2	73
313.15 K, x1 = 0.75	1104.2	99
313.15 K, x1 = 0.898	1055.5	110
313.15 K, x1 = 1	1022.6	–
318.15 K, x1 = 0.126	1309.6	–
318.15 K, x1 = 0.25	1267.7	–
318.15 K, x1 = 0.499	1183.5	59
318.15 K, x1 = 0.75	1100.9	77
318.15 K, x1 = 0.898	1052.5	83
318.15 K, x1 = 1	1019.6	–
323.15 K, x1 = 0.126	1305.4	–
323.15 K, x1 = 0.25	1263.7	–
323.15 K, x1 = 0.499	1179.9	–
323.15 K, x1 = 0.75	1097.6	62
323.15 K, x1 = 0.898	1049.4	67
323.15 K, x1 = 1	1016.7	–
328.15 K, x1 = 0.126	1301.2	–
328.15 K, x1 = 0.25	1259.6	–
328.15 K, x1 = 0.499	1176.2	–
328.15 K, x1 = 0.75	1094.3	–
328.15 K, x1 = 0.898	1046.3	–
328.15 K, x1 = 1	1013.8	–
333.15 K, x1 = 0.126	1297	–
333.15 K, x1 = 0.25	1255.5	–
333.15 K, x1 = 0.499	1172.6	–
333.15 K, x1 = 0.75	1091.1	–
333.15 K, x1 = 0.898	1043.3	–
333.15 K, x1 = 1	1010.8	–
338.15 K, x1 = 0.126	1292.8	–
338.15 K, x1 = 0.25	1251.5	–
338.15 K, x1 = 0.499	1169	–
338.15 K, x1 = 0.75	1087.8	–
338.15 K, x1 = 0.898	1040.2	–
338.15 K, x1 = 1	1007.9	–
343.15 K, x1 = 0.126	1288.7	–
343.15 K, x1 = 0.25	1247.5	–
343.15 K, x1 = 0.499	1165.3	–
343.15 K, x1 = 0.75	1084.6	–
343.15 K, x1 = 0.898	1037.2	–
343.15 K, x1 = 1	1005	–
348.15 K, x1 = 0.126	1284.5	–
348.15 K, x1 = 0.25	1243.5	–
348.15 K, x1 = 0.499	1161.7	–
348.15 K, x1 = 0.75	1081.3	–
348.15 K, x1 = 0.898	1034.1	–
348.15 K, x1 = 1	1002.1	–
353.15 K, x1 = 0.126	1280.3	–
353.15 K, x1 = 0.25	1239.5	–
353.15 K, x1 = 0.499	1158.1	–
353.15 K, x1 = 0.75	1078.1	–
353.15 K, x1 = 0.898	1031.1	–
353.15 K, x1 = 1	999.2	–

CCCCCCCCCCCCCC[P+](CCCCCC)(CCCCCC)CCCCCC.N#Cc1ccc[n-]1 [trihexyl(tetradecyl)phosphonium 2-cyanopyrrolide] + CCCCCCn1cc[n+](C)c1C.O=S(=O)([N-]S(=O)(=O)C(F)(F)F)C(F)(F)F
viscosity [mPa·s]
Settings	278.15 K	283.15 K	288.15 K	293.15 K	298.15 K	303.15 K	308.15 K	313.15 K	318.15 K	323.15 K
x1 = 0.1	701	472	328	234	173	131	102	81	–	–
x1 = 0.201	895	598	411	290	212	159	122	96	77	63
x1 = 0.3	1056	699	474	332	240	178	136	105	83	67
x1 = 0.399	1356	897	607	422	304	224	169	130	103	82
x1 = 0.5	1594	1048	705	488	350	257	193	148	116	93
x1 = 0.601	1658	1093	734	507	361	264	197	151	117	94
x1 = 0.699	1745	1141	764	527	375	273	204	155	120	96
x1 = 0.799	1868	1221	820	566	403	294	219	167	130	103
x1 = 0.902	1930	1279	867	602	430	315	237	180	141	112
x1 = 1	1764	1179	804	563	404	297	223	170	133	106
